The values that follow come from paper PMC8956665, “Structural and molecular rationale for the diversification of resistance mediated by the Antibiotic_NAT family” (Communications Biology, 2022).

Like-named read-outs stand apart in the source and are kept apart here.

For assay [1], the system named is meta-AAC0038. To be noted: ternary complex with CoA; 10 mM apramycin, 20% PEG 3350, 50 mM ADA pH 7; catalytically inactive mutant; active site cleft.
Assay [2] has as its system meta-AAC0038. To be noted: binary complex; catalytically inactive mutant.
Assay [3] has as its target AAC(3)-IVa.
Assay [4] concerns the target AAC(3)-IVa. Description: crystal structure.

meta-AAC0038, sequence (A0A059X981 entry or part of it H168A): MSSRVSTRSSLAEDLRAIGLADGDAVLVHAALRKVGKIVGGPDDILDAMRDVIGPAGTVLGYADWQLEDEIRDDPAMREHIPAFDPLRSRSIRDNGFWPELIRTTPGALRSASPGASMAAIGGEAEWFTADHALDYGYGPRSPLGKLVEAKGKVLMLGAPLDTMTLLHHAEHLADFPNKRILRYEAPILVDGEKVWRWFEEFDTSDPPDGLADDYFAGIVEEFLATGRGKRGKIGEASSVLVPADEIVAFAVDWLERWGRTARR

As for `CN[C@@H]1[C@@H](O[C@H]2O[C@H](CO)[C@@H](N)[C@H](O)[C@H]2O)O[C@H]2C[C@@H](N)[C@@H](O[C@H]3[C@H](O)[C@@H](O)[C@H](N)C[C@@H]3N)O[C@@H]2[C@@H]1O` [APR, apramycin], the “X-ray crystal structure, co-crystallization” value in assay [1] is listed as “crystal structures of the ternary meta-AAC0038^H168A•apramycin•CoA”.

On to `CC(=O)SCCNC(=O)CCNC(=O)[C@H](O)C(C)(C)COP(=O)(O)OP(=O)(O)OC[C@H]1O[C@@H](n2cnc3c(N)ncnc32)[C@H](O)[C@@H]1OP(=O)(O)O` [AcCoA, acetyl-CoA], for which the X-ray crystal structure entry in assay [2] was “the binary meta-AAC0038^H168A•acetyl-CoA complexes”.

As a reminder, the stoichiometry N is the number of molecules, sites or subunits per partner or assembly. With AAC(3)-IVa (enzyme), the stoichiometry N in assay [3] and in assay [4] was 2 in each case.
